The target in the first assay is T1, calcium channel (3H-nitrendipine binding, heart membranes) (Oryctolagus cuniculus, UniProt P15381).
T1 construct: from tissue; host or cells: rabbit heart (crude membrane pellet)
T1 sequence (P15381 whole entry, other chains not shown): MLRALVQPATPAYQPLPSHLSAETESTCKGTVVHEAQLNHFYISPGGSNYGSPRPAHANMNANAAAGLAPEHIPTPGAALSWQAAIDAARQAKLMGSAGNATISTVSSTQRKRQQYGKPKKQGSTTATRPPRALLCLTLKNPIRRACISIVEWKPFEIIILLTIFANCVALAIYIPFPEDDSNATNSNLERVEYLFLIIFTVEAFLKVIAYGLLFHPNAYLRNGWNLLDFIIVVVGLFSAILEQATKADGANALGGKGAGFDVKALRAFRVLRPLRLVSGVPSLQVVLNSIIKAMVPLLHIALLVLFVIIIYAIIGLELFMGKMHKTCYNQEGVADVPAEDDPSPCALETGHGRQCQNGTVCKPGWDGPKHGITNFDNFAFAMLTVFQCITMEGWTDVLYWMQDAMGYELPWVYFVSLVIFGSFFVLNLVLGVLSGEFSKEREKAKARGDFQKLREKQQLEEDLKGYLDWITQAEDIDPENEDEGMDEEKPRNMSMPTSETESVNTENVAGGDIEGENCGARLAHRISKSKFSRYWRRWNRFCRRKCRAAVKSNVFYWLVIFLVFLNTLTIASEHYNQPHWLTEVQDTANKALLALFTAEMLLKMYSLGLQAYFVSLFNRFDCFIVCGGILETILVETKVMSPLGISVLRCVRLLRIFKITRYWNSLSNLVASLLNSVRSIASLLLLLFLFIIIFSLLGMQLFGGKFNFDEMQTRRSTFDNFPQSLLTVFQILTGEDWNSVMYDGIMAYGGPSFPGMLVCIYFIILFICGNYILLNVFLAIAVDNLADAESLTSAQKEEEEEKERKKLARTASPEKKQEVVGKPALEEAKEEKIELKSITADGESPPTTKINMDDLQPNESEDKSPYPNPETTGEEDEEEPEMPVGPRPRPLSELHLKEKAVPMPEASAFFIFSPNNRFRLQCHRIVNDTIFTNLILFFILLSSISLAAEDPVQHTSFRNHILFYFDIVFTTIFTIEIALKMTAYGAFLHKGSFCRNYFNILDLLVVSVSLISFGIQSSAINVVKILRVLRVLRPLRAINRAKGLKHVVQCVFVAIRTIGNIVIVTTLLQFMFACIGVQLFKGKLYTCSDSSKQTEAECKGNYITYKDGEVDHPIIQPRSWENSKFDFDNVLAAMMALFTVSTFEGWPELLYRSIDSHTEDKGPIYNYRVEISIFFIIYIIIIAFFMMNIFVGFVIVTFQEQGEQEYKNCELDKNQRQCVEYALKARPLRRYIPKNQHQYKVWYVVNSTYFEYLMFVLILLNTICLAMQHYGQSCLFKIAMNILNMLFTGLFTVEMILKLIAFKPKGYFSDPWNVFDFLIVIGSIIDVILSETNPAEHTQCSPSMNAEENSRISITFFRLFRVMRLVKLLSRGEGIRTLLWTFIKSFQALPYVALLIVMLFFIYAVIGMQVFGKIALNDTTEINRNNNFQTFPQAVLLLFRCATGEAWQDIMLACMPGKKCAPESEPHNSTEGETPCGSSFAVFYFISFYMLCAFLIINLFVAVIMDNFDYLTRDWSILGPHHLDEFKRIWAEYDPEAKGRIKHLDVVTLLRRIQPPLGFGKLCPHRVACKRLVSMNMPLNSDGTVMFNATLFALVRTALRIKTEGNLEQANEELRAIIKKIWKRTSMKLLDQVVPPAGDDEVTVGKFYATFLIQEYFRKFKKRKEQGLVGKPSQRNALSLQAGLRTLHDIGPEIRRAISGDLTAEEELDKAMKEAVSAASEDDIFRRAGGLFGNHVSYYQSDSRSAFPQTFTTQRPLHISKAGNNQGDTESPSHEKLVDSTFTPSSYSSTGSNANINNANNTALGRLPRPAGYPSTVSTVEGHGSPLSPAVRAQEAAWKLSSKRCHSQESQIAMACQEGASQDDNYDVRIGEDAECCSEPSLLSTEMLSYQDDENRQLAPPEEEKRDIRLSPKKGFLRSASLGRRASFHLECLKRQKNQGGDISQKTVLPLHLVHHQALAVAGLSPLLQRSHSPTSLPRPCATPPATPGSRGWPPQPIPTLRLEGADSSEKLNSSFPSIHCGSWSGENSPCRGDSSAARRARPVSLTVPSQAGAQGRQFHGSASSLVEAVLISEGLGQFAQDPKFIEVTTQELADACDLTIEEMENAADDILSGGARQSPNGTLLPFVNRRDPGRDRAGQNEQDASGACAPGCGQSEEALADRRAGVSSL
T1 sequence (P13806 27-960 partner limits assumed, other chains not shown): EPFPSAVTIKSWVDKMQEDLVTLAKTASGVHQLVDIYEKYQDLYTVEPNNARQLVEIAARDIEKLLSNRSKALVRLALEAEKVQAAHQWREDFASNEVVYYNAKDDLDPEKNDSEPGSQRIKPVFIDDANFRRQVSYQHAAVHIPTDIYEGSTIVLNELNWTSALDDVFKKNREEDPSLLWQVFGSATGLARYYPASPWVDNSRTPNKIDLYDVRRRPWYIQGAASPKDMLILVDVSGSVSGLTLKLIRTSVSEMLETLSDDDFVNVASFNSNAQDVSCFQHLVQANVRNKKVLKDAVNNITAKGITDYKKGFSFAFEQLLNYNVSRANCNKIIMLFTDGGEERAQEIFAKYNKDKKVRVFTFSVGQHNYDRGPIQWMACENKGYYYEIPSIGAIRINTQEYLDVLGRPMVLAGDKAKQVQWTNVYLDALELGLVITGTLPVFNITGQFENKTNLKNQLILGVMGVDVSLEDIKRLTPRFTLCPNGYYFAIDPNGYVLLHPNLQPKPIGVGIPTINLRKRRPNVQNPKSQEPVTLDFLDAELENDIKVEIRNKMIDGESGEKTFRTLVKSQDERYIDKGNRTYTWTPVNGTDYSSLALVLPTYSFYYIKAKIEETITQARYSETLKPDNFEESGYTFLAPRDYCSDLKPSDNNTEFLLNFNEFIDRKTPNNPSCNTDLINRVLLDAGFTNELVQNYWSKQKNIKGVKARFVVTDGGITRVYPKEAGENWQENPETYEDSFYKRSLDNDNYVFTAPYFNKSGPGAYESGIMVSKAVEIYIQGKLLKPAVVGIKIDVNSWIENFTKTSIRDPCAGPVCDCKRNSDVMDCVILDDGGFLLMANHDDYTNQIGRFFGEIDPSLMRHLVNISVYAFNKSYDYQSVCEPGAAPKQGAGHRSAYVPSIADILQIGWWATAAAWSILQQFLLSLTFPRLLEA
T1 sequence (P13806 961-1106 partner limits assumed, other chains not shown): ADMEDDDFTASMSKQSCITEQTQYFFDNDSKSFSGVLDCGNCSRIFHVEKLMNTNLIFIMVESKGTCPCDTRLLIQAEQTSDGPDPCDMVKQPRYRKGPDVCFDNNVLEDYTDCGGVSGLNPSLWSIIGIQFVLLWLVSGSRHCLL
The assay can be described thus: Assay for inhibition of nitrendipine binding (3H-nitrendipine, rabbit heart membranes). Conditions: 3H-nitrendipine 0.05-0.50 nM, 90 minutes at 4° C., compounds of Formula I (Table 1). Here is the method: Female, New Zealand white rabbits (1-2 kg) are sacrificed by cervical dislocation, and the heart is immediately removed, cleaned and chopped into small pieces. The tissue is homogenized in 5×volume of 0.05M Hepes buffer, pH 7.4. The homogenate is centrifuged at 4000 g for 10 minutes, and the supernatant is re-centrifuged at 42,000 g for 90 minutes. The resulting membrane pellet is resuspended (0.7 ml/g weight) in 0.05M Hepes, pH 7.4 and stored at […] until used. Each tube of the binding assay contains ^3H-nitrendipine (0.05-0.50 nM), buffer, membranes (0.10 ml ), and test compound in a total volume of 1.0 ml . After 90 minutes at 4° C., the bound nitrendipine is separated from the unbound by filtration on Whatman GF/C filters. After rinsing, the filters are dried and counted in a liquid scintillation counter.
Non-specifically bound ^3H-nitrendipine (i.e., the amount bound in the presence of excess unlabelled nitrendipine) is subtracted from the total bound to obtain specifically-bound radiolabeled nitrendipine. The amount of specifically-bound nitrendipine in the presence of a test compound is compared to the amount bound in the absence of the compound. A percent displacement (or inhibition) can then be obtained.
The term IC50 denotes the concentration at which inhibition is half-maximal. With `CC1=C(C(=O)OCCN(C)Cc2ccccc2)C(c2cccc([N+](=O)[O-])c2)C2=C(COCCS2(=O)=O)N1` (stereo not drawn) [Compound 1, 5H-[1,4]oxathiepino[6,5-b]pyridine-8-carboxylic acid, 2,3,6,9-tetrahydro-7-methyl-9-(3-nitrophenyl), 2-[methyl(phenylmethyl)amino]ethyl ester, 1,1-dioxide], the IC50 came to 39 nM.
The same measure, in the same setting: the same measure for `COC(=O)C1=C(C)NC2=C(C1c1ccccc1Cl)S(=O)(=O)CCOC2` (stereo not drawn) [Compound 2, 5H-[1,4]oxathiepino[6,5-b]pyridine-8-carboxylic acid, 9-(2-chlorophenyl)-2,3,6,9-tetrahydro-7-methyl, methyl ester, 1,1-dioxide]: 12 nM; for `CC1=C(C(=O)OCCN(C)Cc2ccccc2)C(c2ccccc2Cl)C2=C(COCCS2(=O)=O)N1` (stereo not drawn) [Compound 3, 5H-[1,4]oxathiepino[6,5-b]pyridine-8-carboxylic acid, 9-(2-chlorophenyl)-2,3,6,9-tetrahydro-7-methyl, 2-[methyl(phenylmethyl)amino]ethyl ester, 1,1-dioxide]: 129 nM.
Same read-out and setting: with `COC(=O)C1=C(C)NC2=C(C1c1cccc([N+](=O)[O-])c1)S(=O)(=O)CCOC2` (stereo not drawn) [Compound 4, 5H-[1,4]oxathiepino[6,5-b]pyridine-8-carboxylic acid, 2,3,6,9-tetrahydro-7-methyl-9-(3-nitrophenyl), methyl ester, 1,1-dioxide] the figure was 46 nM; with `COC(=O)C1=C(C)NC2=C(C1c1ccccc1[N+](=O)[O-])S(=O)(=O)CCOC2` (stereo not drawn) [Compound 5, 5H-[1,4]oxathiepino[6,5-b]pyridine-8-carboxylic acid, 2,3,6,9-tetrahydro-7-methyl-9-(2-nitrophenyl), methyl ester, 1,1-dioxide], 34 nM; with `COC(=O)C1=C(C)NC2=C(C1c1cccc(Cl)c1)S(=O)(=O)CCOC2` (stereo not drawn) [Compound 6, 5H-[1,4]oxathiepino[6,5-b]pyridine-8-carboxylic acid, 9-(3-chlorophenyl)-2,3,6,9-tetrahydro-7-methyl, methyl ester, 1,1-dioxide], 21 nM.
Same read-out and setting: with `CC1=C(C(=O)OCCN(C)Cc2ccccc2)C(c2cccc(Cl)c2)C2=C(COCCS2(=O)=O)N1` (stereo not drawn) [Compound 7, 5H-[1,4]oxathiepino[6,5-b]pyridine-8-carboxylic acid, 9-(3-chlorophenyl)-2,3,6,9-tetrahydro-7-methyl, 2-[methyl(phenylmethyl)amino]ethyl ester, 1,1-dioxide] the figure was 13 nM; with `CC1=C(C(=O)OCCN(C)Cc2ccccc2)C(c2ccccc2[N+](=O)[O-])C2=C(COCCS2(=O)=O)N1` (stereo not drawn) [Compound 8, 5H-[1,4]oxathiepino[6,5-b]pyridine-8-carboxylic acid, 2,3,6,9-tetrahydro-7-methyl-9-(2-nitrophenyl), 2-[methyl(phenylmethyl)amino]ethyl ester, 1,1-dioxide], 86 nM.

Still in this assay, the particulars now being: 3H-nitrendipine, compounds of Formula IIa (Table 2).
Consider `CC1=C(C(=O)OCCOC(=O)c2ccccc2)C(c2c(F)cccc2Cl)C2=C(COCCS2(=O)=O)N1` (stereo not drawn) [Compound 10, 5H-[1,4]oxathiepino[6,5-b]pyridine-8-carboxylic acid, 9-(2-chloro-6-fluorophenyl)-2,3,6,9-tetrahydro-7-methyl-, 2-(benzoyloxy)ethyl ester, 1,1-dioxide], for which the IC50 is 17 nM.
The same measure, in the same setting: with `CC1=C(C(=O)OCCOC(=O)C2CCCCC2)C(c2c(F)cccc2Cl)C2=C(COCCS2(=O)=O)N1` (stereo not drawn) [Compound 11, 5H-[1,4]oxathiepino[6,5-b]pyridine-8-carboxylic acid, 9-(2-chloro-6-fluorophenyl)-2,3,6,9-tetrahydro-7-methyl-, 2-[(cyclohexylcarbonyl)oxy]ethyl ester, 1,1-dioxide] the figure was 96 nM; with `CC(=O)OCCOC(=O)C1=C(C)NC2=C(C1c1c(F)cccc1Cl)S(=O)(=O)CCOC2` (stereo not drawn) [Compound 12, 5H-[1,4]oxathiepino[6,5-b]pyridine-8-carboxylic acid, 9-(2-chloro-6-fluorophenyl)-2,3,6,9-tetrahydro-7-methyl-, 2-(acetyloxy)ethyl ester, 1,1-dioxide], 582 nM.
For the molecule `CC1=C(C(=O)OCCOC(=O)C2CC2)C(c2c(F)cccc2Cl)C2=C(COCCS2(=O)=O)N1` (stereo not drawn) [Compound 13, 5H-[1,4]oxathiepino[6,5-b]pyridine-8-carboxylic acid, 9-(2-chloro-6-fluorophenyl)-2,3,6,9-tetrahydro-7-methyl-, 2-[(cyclopropylcarbonyl)oxy]ethyl ester, 1,1-dioxide], the IC50 came out at 418 nM.
`CC1=C(C(=O)OCCOC(=O)C(C)C)C(c2c(F)cccc2Cl)C2=C(COCCS2(=O)=O)N1` (stereo not drawn) [Compound 14, 5H-[1,4]oxathiepino[6,5-b]pyridine-8-carboxylic acid, 9-(2-chloro-6-fluorophenyl)-2,3,6,9-tetrahydro-7-methyl-, 2-(2-methyl-1-oxopropoxy)ethyl ester, 1,1-dioxide]: the half-maximal inhibitory concentration (IC50) turned out to be 60 nM.
For `CC1=C(C(=O)OCCO)C(c2ccccc2Cl)C2=C(COCCS2(=O)=O)N1` (stereo not drawn) [Compound 15, 5H-[1,4]oxathiepino[6,5-b]pyridine-8-carboxylic acid, 9-(2-chlorophenyl)-2,3,6,9-tetrahydro-7-methyl-, 2-hydroxyethyl ester, 1,1-dioxide], the IC50 came out at 20000 nM.
Still for that read-out and setting: the same measure for `CC1=C(C(=O)OCCCOC(=O)c2ccccc2)C(c2ccccc2Cl)C2=C(COCCS2(=O)=O)N1` (stereo not drawn) [Compound 16, 5H-[1,4]oxathiepino[6,5-b]pyridine-8-carboxylic acid, 9-(2-chlorophenyl)-2,3,6,9-tetrahydro-7-methyl-, 3-(benzoyloxy)propyl ester, 1,1-dioxide]: 40 nM; for `CC1=C(C(=O)OCCOC(=O)C(C)C)C(c2ccccc2Cl)C2=C(COCCS2(=O)=O)N1` (stereo not drawn) [Compound 17, 5H-[1,4]oxathiepino[6,5-b]pyridine-8-carboxylic acid, 9-(2-chlorophenyl)-2,3,6,9-tetrahydro-7-methyl-, 2-(2-methyl-1-oxopropoxy)ethyl ester, 1,1-dioxide]: 36 nM.
With `CC1=C(C(=O)OCc2oc(=O)oc2-c2ccccc2)C(c2cccc(Cl)c2Cl)C2=C(COCCS2(=O)=O)N1` (stereo not drawn) [Compound 18, 5H-[1,4]oxathiepino[6,5-b]pyridine-8-carboxylic acid, 9-(2,3-dichlorophenyl)-2,3,6,9-tetrahydro-7-methyl-, (2-oxo-5-phenyl-1,3-dioxol-4-yl)methyl ester, 1,1-dioxide], the concentration for half-maximal inhibition (IC50) is 21 nM.
Still for that read-out and setting: with `CC1=C(C(=O)OCc2oc(=O)oc2C)C(c2cccc(Cl)c2Cl)C2=C(COCCS2(=O)=O)N1` (stereo not drawn) [Compound 19, 5H-[1,4]oxathiepino[6,5-b]pyridine-8-carboxylic acid, 9-(2,3-dichlorophenyl)-2,3,6,9-tetrahydro-7-methyl-, (5-methyl-2-oxo-1,3-dioxol4-yl)methyl ester, 1,1-dioxide] the figure was 18 nM.
The same measure, in the same setting: with `CC1=C(C(=O)OCCO)C(c2c(F)cccc2Cl)C2=C(COCCS2(=O)=O)N1` (stereo not drawn) [Compound 20] the figure was 4360 nM; with `CC1=C(C(=O)OCCCO)C(c2ccccc2Cl)C2=C(COCCS2(=O)=O)N1` (stereo not drawn) [Compound 21], 560 nM.

The next assay relates to trachea (trachealis muscle tissue). The assay can be described thus: Test for inhibition of calcium-dependent smooth muscle contraction (KCl-challenged tracheal rings). The settings on record: Canis lupus familiaris, 10 min; dog tracheal rings, 50 mM KCl challenge, test compound added for 10 minutes. The format is cell-based. Here is the method: The trachea and the aorta from dogs sacrificed by excess KCl injection are stored overnight at 4° C. in oxygenated Krebs-Henseleit buffer. Tracheal rings, one cartilage segment wide (5-10 mm), are cut starting from the bronchial end. Rings of aorta tissue of the same width are also prepared. After cutting the cartilage, the trachealis muscle tissue and the aorta tissue are suspended in oxygenated Krebs-Henseleit buffer at 37° C. in a 25 ml tissue bath. After a 60-minute equilibration period, the tissues are challenged with 10 μM carbachol. After 5 minutes, the tissues are rinsed and allowed to rest 50 minutes. The tissues are then challenged with 50 mM KCl and, after 30 minutes, the contractions are quantitated. The tissues are then rinsed and re-equilibrated for 50 minutes. Test compounds are then added for 10 minutes, and the tissue is rechallenged with 50 mM KCl. After 30 minutes, the contraction is recorded and used to determine the % inhibition of control. The percent inhibition of smooth muscle contraction is calculated as follows from response data before and after drug treatment:
% inhibition=100−100×peak response after drug treatment/peak response before drug treatment
For the molecule `CC1=C(C(=O)OCCN(C)Cc2ccccc2)C(c2ccccc2Cl)C2=C(COCCS2(=O)=O)N1` (stereo not drawn) [Compound 3, 5H-[1,4]oxathiepino[6,5-b]pyridine-8-carboxylic acid, 9-(2-chlorophenyl)-2,3,6,9-tetrahydro-7-methyl, 2-[methyl(phenylmethyl)amino]ethyl ester, 1,1-dioxide], the IC50 turned out to be 55 nM.
